Consider four molecules from patent US20180055848A1 (Board of Supervisors of Louisiana State University and …, priority 2015, published 2018).

Structures are written as SMILES. Where two headings read alike, the source gives them in different places.

Experiment [1] has as its system Male Sprague-Dawley rats fed a high fat diet. The experiment in a line: Example 5: weight gain, body composition and metabolic chamber in rats, 4 weeks. The experiment is classed as in vivo, rat. How it is done: (§1) The Pennington Biomedical Research Center Animal Care and Use Committee approved the animal protocols. […] Male Sprague-Dawley rats (Harlan, Inc., Indianapolis, Ind., 8-9 weeks old) were fed a high fat diet (60% calories from fat, D12492, Research Diets, New Brunswick, N.J.) for 4 weeks. […] All treatments were administered by intraperitoneal injection twice a day. […] Body composition was measured by Nuclear Magnetic Resonance (Minispec LF90 NMR analyzer, Bruker Optics, Billerica, Mass.). Weight and food intake were recorded every 2 days. […] Total activity was measured with a Phenomaster system (TSE Systems, Chesterfield Mo.). Chambers had evenly spaced infrared beam grids along X, Y, and Z axes; the system sensed and quantified total beam breaks caused by movements of the animal.

Experiment [2] shares this test system. The experiment in a line: Example 6: lean and fat mass in rats, 8 weeks. It is filed as in vivo, rat. The conditions noted are these: i.p. twice a day, albuterol 0.125 mg/kg, caffeine 3.12 mg/kg. How it is done: as §1
For the next experiment, the system named is adults. As to conditions: after 6 months; cited from earlier work.
For experiment [3], the system named is lean adults and post-obese adults. The conditions noted are these: 100 mg of caffeine, cited from earlier work.
Experiment [4] relates to Differentiated human adipocytes. Nature of the experiment: Lipolysis assay (glycerol release) in cultured adipocytes. It is filed as cell-based. The conditions noted are these: 3 hours. The procedure: Primary human adipose tissue was obtained from patients undergoing liposuction, paniculectomy, or bariatric surgery. Tissue was processed by […]) to isolate and cryopreserve pre-adipocytes. At the time of the assay, pre-adipocytes were differentiated into adipocytes. Differentiated human adipocytes adherent to the bottom of a 96-well plate were washed and treated with media containing one of ten treatments: […] After incubation, a 50 μL aliquot was removed and combined with 50 μL glycerol reagent, in a colorimetric assay based on the amount of glycerol released during incubation with test compounds. Absorbance was measured at 540 nm, and results were calibrated against a standard curve. Eight replicates were conducted for each treatment.

The next experiment relates to healthy adults. Nature of the experiment: Metabolic rate in humans (indirect calorimetry, crossover study).

Consider `CC(C)(C)NCC(O)c1ccc(O)c(CO)c1` (stereo not shown) [albuterol, albuterol (salbutamol)], for which, in experiment [1] (4 weeks, i.p. twice a day, albuterol 0.125 mg/kg, caffeine 3.12 mg/kg, p<0.001), the “additional lean mass gained compared to the saline control group” value is on record as 16.6 g. The “weight gain compared to the saline control group” value in experiment [1] (4 weeks, i.p. twice a day, albuterol 0.125 mg/kg, caffeine 3.12 mg/kg, p=0.04) was “gained significantly more weight”. For the same molecule, in experiment [1] (albuterol 0.125 mg/kg i.p. twice a day, p=0.07), the “energy expenditure during the dark phase” value is reported as “trend towards increased energy expenditure”. In experiment [2] (p=0.004, n=30), the “fat mass gained, week 8” value amounted to 20.1 g. The “lean mass gained by week 8” value in experiment [2] (p=0.03, n=30) is reported as 60.3 g.

Consider `CCCCCCCCCCC[C@@H](C[C@@H]1OC(=O)[C@H]1CCCCCC)OC(=O)[C@H](CC(C)C)NC=O` [Orlistat], for which, in the experiment on adults, the weight loss result was “about 2.8%”, the “weight loss attributable to fat loss” value is 2.1% and the “weight loss attributable to reduction in lean tissue” value is reported as 0.7%.

As to `Cn1c(=O)c2c(ncn2C)n(C)c1=O` [caffeine], the fat accretion entry in experiment [1] (4 weeks, i.p. twice a day, p=0.006) was “reduced fat accretion”. The “increase in resting metabolic rate” value is given as 3-4% in experiment [3], 150 kcal/day in experiment [3] (lean adults) and 80 kcal/day in experiment [3] (post-obese adults). Besides, the “increase in lipolysis over buffer-treated cells” value in experiment [4] (caffeine 10 μg/mL, p=0.83) is “exception”. For the same molecule, the “increased energy expenditure (the delta)” value in the experiment on healthy adults (100 mg caffeine alone, oral) turned out to be 37 kcal. Moreover, the “energy expenditure over the baseline metabolic rate” value in the experiment on healthy adults (all dosages, single oral dose, p<0.02 to p<0.001, n=8) is recorded as “significant increases”.

On to `CC(C)NCC(O)c1ccc(O)c(O)c1` (stereo not shown) [isoproterenol, Isoproterenol], for which the increase in lipolysis in experiment [4] (Isoproterenol 1 μM positive control, p<0.001) is listed as about 90%.
